Results from US7115574B2, “System and method for support legacy operating system booting in a legacy-free system” (priority 2001, dated 2006).

Assays:
[1] = test system: C. albicans; test: C. albicans colony forming units (candidacidal activity); format: cell-based; conditions: FIG. 2
Description: C. albicans (clinical isolate) was obtained from the collection of the Department of Microbiology, Ospedale Maggiore di Milano and maintained on Sabouraud's agar slants and periodically transferred to Sabouraud's agar plates and incubated for 48 hours at 28° C. To prepare a stationary growth phase yeast, a colony was taken from the agar plate and transferred into 30 ml Sabouraud-dextrose broth and incubated for 72 hours at 32° C. Cells were centrifuged and suspended in Hank's balanced salt solution (“HBSS”) to the desired concentration. Viability, determined by the exclusion of 0.01% methylene blue, remained >98%.
C. albicans (1×10^6/ml in HBSS) was incubated in the presence or absence or α-MSH(1-13) (SEQ ID NO: 3) or (11-13) (SEQ ID NO: 1) at concentrations in the range of 10^−15 M to 10^−6 M for 2 hours at 37° C. Cells were then washed in cold distilled water and diluted with HBSS to a concentration of 100 organisms/ml. One-ml aliquots were dispensed on blood agar plates and incubated for 48 hours at 37° C. Organism viability was estimated from the number of colonies formed.
In subsequent experiments using familiar procedures we compared activity of α-MSH(4-10) (SEQ ID NO: 10), (6-13) (SEQ ID NO: 2), (11-13) (SEQ ID NO: 1), ACTH(1-39) (SEQ ID NO: 9), (18-39) (SEQ ID NO: 11) and fluconazole, the latter an established antifungal agent. Melanocortin peptides and fluconazole were tested in concentrations of 10^−6 M to 10^−4 M. There were at least six replicates for each concentration of peptide. […]

[2] = test system: C. albicans; test: Horse serum-induced germ tube formation (germination) of C. albicans; format: cell-based; conditions: 10^−6M, 60 minutes at 37° C. after horse serum induction
Description: C. albicans from stationary phase cultures were washed twice with distilled water and suspended in HBSS to a final concentration of 2×10^6/ml. Hyphal growth was induced by addition of 10% inactivated horse serum (GIBCO/BRL, Great Britain) to yeast incubated for 45 minutes at 37° C. with continuous shaking. Horse serum was removed by washing cells twice with HBSS and incubation was continued for 60 minutes at 37° C. in the presence of α-MSH(1-13) (SEQ ID NO: 3), (6-13) (SEQ ID NO: 2) or (11-13) (SEQ ID NO: 1) at a concentration of 10^−6M with continuous shaking. The percentage of filamentous cells was evaluated under a light microscope with the aid of hemocytometer. Experiments were run in triplicate and at least 200 cells were scored. Photomicrographs were taken with a MC100 camera attached to an Axioskop Zeiss microscope.

[3] = test system: edema caused by intradermal injection of recombinant human IL-1β in the mouse ear; test: IL-1β-induced ear edema with centrally administered α-MSH and receptor antagonists; format: in vivo, BALB/c mice
Description: See Macaluso, A., McCoy, D., Ceriani, G., Watanabe, T., Biltz, J., Catania, A., and Lipton, J. M., Anti-inflammatory Influences of a-MSH Molecules: Central Neurogenic and Peripheral Actions, 14(4), J. of Neuroscience 2377-2382 (1994). Female BALB/c mice (Simonsen Laboratories, Gilroy, Calif.), 7-8 weeks old, were housed at 23-25° C. in groups not exceeding five animals per cage [28 cm (L)×18 cm (W)×13 cm (H)]. Before the experiments they were acclimatized for not less than 1 week before experimentation to standard lighting and temperature conditions with food and water freely available.
Mice were anesthetized with 10% pentobarbital sodium solution (1 mg/mouse, 50 mg/ml, Nembutal sodium solution; Abbott Laboratories, North Chicago, Ill.). Baseline ear thickness measurements were taken with a spring-loaded micrometer (Swiss Precision Instruments, Los Angeles, Calif.). Ear thickness was expressed in centimeters and was measured at least twice at each time point. The average thickness of unstimulated ears was […]. Inflammation was induced by injecting 20 μl of recombinant human IL-1β (1500 U; Genzyme, Cambridge, Mass.) directly into the skin (intradermally) of one ear of each mouse using a 28 gauge needle (Hiltz et al., 1992). Measures of ear thickness were repeated 4 and 6 hr later, while the mice were under sodium pentobarbital anesthesia.
Several agents were administered at the time of ear challenge to pharmacologically block certain receptors: atropine (Sigma Chemical Co.; 150 μg i.p.), a muscarinic receptor blocker that acts on autonomic end-organ receptors, was chosen because of links between inflammation and modulation of pain and the finding that muscarinic antagonists increase pain threshold (Hartvig et al., 1989); phentolamine (Sigma; 150 μg i.p.) an agent that competes for occupancy of α-adrenergic receptors; propranolol (Sigma; 150 μg, i.p.; 30 μg, i.c.v.), a nonspecific competitive antagonist for β-adrenergic receptors.
Because of the size of the experiments and the requirement for several shipments of animals over time, several experiments were performed, each with complete treatment and control groups drawn from the same shipment of mice. Omnibus analysis of variance techniques (Dynastat, Washington, D.C.) were used to test overall differences among group means. Tukey's protected t test was used to compare individual means. Probability values of <0.05 were considered significant.

[4] = test system: N9 clone of murine microglial cells; test: Northern blot of TNF-α and iNOS mRNA in activated microglia; format: cell-based; conditions: peptide prior to LPS and IFN-γ
Description: Total cellular RNA was extracted from 10^6 adherent microglial cells plated in six-well tissue culture plates (Corning). Electrophoresis of RNA samples (10 μg/lane) was performed in 1% agarose/2.2 M formaldehyde gels and the gels subsequently blotted onto nylon filters by capillary action and baked for 2 h before prehybridization. The cDNA fragments encoding murine TNF-α and mouse macrophage iNOS were ^32P-labeled using the Ready-To-Go DNA Labeling Kit (Pharmacia, Uppsala, Sweden) before hybridization of nylon filters and autoradiography. Blots were subsequently rehybridized with human glyceraldehyde-3-phosphate dehydrogenase (G-3-PDH) cDNA probe as an internal control (Clontech Laboratories, Inc., Palo Alto, Calif.).

[5] = test system: N9 clone of murine microglial cells; test: TNF-α, IL-6 and NO2− production by LPS+IFN-γ activated microglia; format: cell-based
Description: See Delgado, R., Carlin, A., Alraghi, L., Demitri, M., Meda, L., Galimberti, D., Pierluigi, B., Lipton, J. M., Catania, A., Melanocortin Peptides Inhibit Production of Proinflammatory Cytokines and Nitric Oxide by Activated Microglia, 63 J. of Leukocyte Biol. 740 (1998). […] The N9 clone of murine microglial cells was obtained by immortalization of embryonic brain cultures with the 3RV retrovirus carrying an activated v-myconcogene. N9 cells were cultured in T-75-cm^2 culture flasks (Coming, Cambridge, Mass.) and maintained at 37° C. in a humidified incubator under 5% CO2 atmosphere in RPMI 1640 supplemented with 2 mM L-glutamine, 50 U/mL penicillin G, 50 μg/mL streptomycin sulfate (GIBCO-BBL, Paisley, UK), and 10% heat-inactivated fetal bovine serum (FBS, Hyclone Lab, Inc., Logan, Utah) until experiments were performed. Cells were used between the first and the tenth passage.
Sub-confluent microglial cells were washed twice with phosphate-buffered saline (PBS) and incubated with trypsin 0.025% and ethylenediaminetetraacetate (EDTA) 0.02% without calcium and magnesium for 3 min. at 37° C. to detach the cells from the culture flask. Cells were then resuspended in medium and incubated in 24-well tissue-culture plates at a concentration of 2×10^5 cells/mL for 16 h in a humidified incubator (37° C., 5% CO2). Growth medium was removed and cell monolayers were stimulated with 10 ng/mL lipopolysaccharide (LPS, from Escherichia coli 055:B5, Sigma Chemical Co., St. Louis, Mo.) plus 1 U/ml, murine IFN-γ (Sigma). […] Although production of TNF-α and NO was reduced to even much lower concentrations of the peptides, concentrations in the micromolar range had the most profound and consistent inhibitory effects. […] Cell-free supernatants were harvested after 24 h incubation and assayed for TNF-α, IL-6 and NO2. Viability of cells was assessed by trypan blue exclusion for each experimental condition: it was consistently >98%. Dexamethasone (Sigma) and N-monomethyl-L-arginine (L-NMMA: 100 μM, Cayman Chemical, Ann Arbor, Mich.) were used as positive controls for TNF-α and NO inhibition, respectively. Tests were repeated in at least three independent experiments and assays were performed in triplicate.
TNF-α bioactivity was measured in supernatants of cell cultures by standard cytotoxicity assay using L929 cells and recombinant human TNF-α (Sigma) as standard. The detection limit of the bioassay was 20 pg/mL. IL-6 was measured using a commercial murine enzyme-linked immunosorbent assay (ELISA: RPN 2714, Amersham, Little Chalfont, UK).
NO is rapidly oxidized to nitrite in culture medium, and nitrite (NO2^−) concentration is an indicator of NO production. Cell-free culture supernatants were mixed with equal amounts of Griess reagent (1% sulfanilamide, 0.1% naphtylethylenediamide in 2.5% phosphoric acid) in wells of 96-well ELISA plates. Samples were incubated at room temperature for 10 min and absorbance was measured at 540 nm with the use of a microplate reader. Nitrite […] concentrations were calculated using a sodium nitrite standard curve.
Effects of melanocortin peptides on cytokine and NO production were evaluated by repeated measures analysis of variance followed by Dunnet's test for specific comparisons. Probability values less than 0.05 were considered significant.

[6] = test system: carrageenan-induced swelling in rat paws; test: Rat paw edema test (carrageenan); format: in vivo, Sprague-Dawley rats; conditions: 100 mg/kg intraperitoneal, rats
Description: A second in vivo bioassay for anti-inflammatory activity was conducted in which the action of the tripeptide (SEQ ID NO: 1) was compared to that of hydrocortisone. In this assay, the two agents were given at similar doses and tested for their independent ability to inhibit carrageenan-induced swelling in rat paws. This assay, the rat paw edema test, was conducted generally as it is typically performed in the art, for example, as described by Winter et al. (1962), Proc. Soc. Exp. Biol. Med., 111:544 or in U.S. Pat. No. 4,150,137.
Briefly, the assay was performed as follows. Each of twenty-four male Sprague-Dawley rats was assigned to one of four groups: Tripeptide treatment and controls (matched according to body weight and initial paw volume), hydrocortisone treatment and matched controls. The volume of the right rear paw of the test and control animals was determined using standard procedures and a mercury displacement volumetric technique. […] One hour later 0.5 ml of 1% lambda carrageenan in saline solution was injected into the right rear paw of the animals and the paw volume was again recorded (baseline measure). For comparison of the effects of the two treatments, paw volume of experimental animals measured at hourly intervals was expressed as a percentage of the volume change of their respective matched controls.

[7] = Lipton and Catania, Immunol. Today 1997; cited from earlier work
[8] = antagonist administered intraperitoneally
[9] = microglia stimulated with LPS+IFN-γ for 24 hr, micromolar concentrations

For “HFRWGKPV (Ac-HFRWGKPV-NH2) [α-MSH(6-13), octapeptide fragment of α-MSH]”, the “relative potency in reducing C. albicans viability” value ([1]; 10^−4M melanocortin peptides) was “most effective” and the “reduction in the number of filamentous cells / inhibition of germ tube formation” value [2] was “approximately 50%”.
With COc1ccc(OC)c(C(O)C(C)NC(C)(C)C)c1 (centres unmarked) [butoxamine] the “effect of antagonist on the anti-inflammatory influence of centrally administered α-MSH(1-13)” value (shortened to “effect of antagonist”) [3, 8] was “significantly reduced”.
In the case of “ACTH(1-24): melanocortin peptide ACTH(1-24) (Sigma) (SYSMEHFRWGKPVGKKRRPVKVYP; Designed polypeptide with anti-inflammatory, anti-microbial, anti-fungal, and anti-viral properties.) [reference compound]”, the “transcription levels (mRNA) for TNF-α and iNOS” value [4] is reported as “inhibition of mRNA transcription”, the “concentration most effective at inhibiting cytokine formation” value ([5]; LPS+IFN-γ stimulated microglia, 1-100 μM tested) is reported as 10 to 25 µM and the “reduction of production of IL-6” value [5, 9] is reported as 65%. The “reduction of production of NO2^−” value [5, 9] was 41% and the “reduction of production of TNF-α” value [5, 9] was 38%.
With C[C@]12CCC(=O)C=C1CC[C@@H]1[C@@H]2[C@@H](O)C[C@@]2(C)[C@H]1CC[C@]2(O)C(=O)CO [hydrocortisone, reference compound] the “anti-inflammatory activity (inhibition of paw edema)” value ([6]; between 1 and 4 hours) was “nearly identical anti-inflammatory activity” and the “decrease in paw inflammation” value ([6]; first hour after carrageenan injection) was ~30%.
For Cc1ccc(N(CC2=NCCN2)c2cccc(O)c2)cc1 [phentolamine], the “effect of antagonist” value [3, 8] was “did not alter”.
In the case of “α-MSH(4-10): core α-MSH sequence (4-10) [reference compound]”, the “inhibition of CFU” value ([1]; 10^−4M peptide as printed) is listed as “approximately 50%” and the toxicity [7] is listed as “very low toxicity”.
With CC(C)NCC(O)COc1cccc2ccccc12 (centres unmarked) [propranolol] the “effect of antagonist” value [3, 8] was “inhibited” and the “effect of antagonist” value ([3]; antagonist injected centrally) was “little effect”.
With CC(C)NCC(O)COc1ccc(CC(N)=O)cc1 (centres unmarked) [atenolol] the “effect of antagonist” value [3, 8] was “little inhibition”.
With CN1[C@@H]2CC[C@H]1C[C@@H](OC(=O)C(CO)c1ccccc1)C2 (some centres unmarked) [atropine] the “effect of antagonist” value [3, 8] was “did not alter”.
